Our source for the IC50 values is patent publication US20250320224A1 (DOMAIN THERAPEUTICS, priority 2022, published 2025).

Structures can show the parent of a compound that is named as a salt. Some results are limits rather than exact numbers.

In this assay the target is T1, human PAR-2 (hPAR-2) receptor (Homo sapiens, UniProt P55085).
T1 construct: expressed in HEK-293 cells in an endogenous manner; endogenous in cells; host or cells: HEK-293
T1 sequence (P55085 26-397): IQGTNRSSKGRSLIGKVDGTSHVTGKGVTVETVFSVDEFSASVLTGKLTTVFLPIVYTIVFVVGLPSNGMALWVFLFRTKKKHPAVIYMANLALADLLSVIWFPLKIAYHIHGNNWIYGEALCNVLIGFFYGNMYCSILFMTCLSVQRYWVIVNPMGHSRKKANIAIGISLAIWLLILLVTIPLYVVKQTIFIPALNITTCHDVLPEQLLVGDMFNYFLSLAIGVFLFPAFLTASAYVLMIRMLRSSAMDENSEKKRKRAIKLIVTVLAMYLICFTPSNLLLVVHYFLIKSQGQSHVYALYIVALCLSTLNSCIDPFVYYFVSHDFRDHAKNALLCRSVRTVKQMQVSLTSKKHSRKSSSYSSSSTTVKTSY
The assay can be described thus: In vitro human PAR-2 functional antagonist activity using calcium assays. The assay is classed as cell-based. Conditions: hPAR-2 endogenously expressed in HEK-293 cells; stimulated by 2-Furoyl-LIGRLO-NH2 peptide; Fluo4AM intracellular calcium, FLIPR Tetra. How it is done: Example 283: In Vitro Human PAR-2 Functional Antagonist Activity Using Calcium Assays
Examples of the present invention were tested successively for their agonist and antagonist activities on human PAR-2 (hPAR-2) receptor expressed in HEK-293 cells in an endogenous manner. Compounds exert agonist activity if, by themselves in absence of the 2-Furoyl-LIGRLO-NH2 peptide (selective hPAR-2 agonist), they activate PAR-2; they exert antagonist activity if they decrease the action of the 2-Furoyl-LIGRLO-NH2 peptide on the receptor. The assay used to determine compound activity is based on calcium measurement.
Cell Culture: HEK-293 cells were maintained in Dulbecco's Modified Eagle's Medium supplemented with 10% Foetal Calf Serum, 1% Penicillin/Streptomycin at 37° C./5% CO2. Flasks for tests (F75) are seeded with 6e+06 cells 24 h before the experiment at 37° C./5% CO2.
Calcium assay: Receptor activity was detected by changes in intracellular calcium measured using the fluorescent Ca^2+ sensitive dye, Fluo4AM (Molecular Probes).
The day of the assay, medium was replaced by assay buffer (HBSS 1× (Gibco 14175-053), Hepes 20 mM, MgSO4-7H2O 1 mM, Na2CO3 3.3 mM, CaCl2—2H2O 2.6 mM, 0.5% bovine serum albumin (BSA), Probenecid 2.5 mM, 0.1 mg/mL Pluronic Acid) and complemented with 1 μM Fluo4AM and cells were incubated during 1:30 h at 37° C.
Cells were then detached, resuspended in assay buffer and seeded in 384 wells, transparent-flat bottom black walled plates (2e+04 cells per well). Plates were incubated at +22° C. for 20 min. Compounds stock solutions were prepared in 100% DMSO and dilutions in test buffer were carried out in polypropylene plates with a digital dispenser (D300e, Tecan). Compounds were added to the cells and intracellular Ca^2+ measurements were collected at the same time on FLIPR Tetra® (Molecular Devices) with specific filters (Exc: 470-495 nm/Em: 515-575 nm).
Agonist and antagonist activities of compounds were consecutively evaluated on the same cell plate. Agonist activity was first measured after 10 min incubation with the compound alone. Then, cells were stimulated by an […] of the 2-Furoyl-LIGRLO-NH2 peptide and fluorescence was recorded for an additional 5 min. EC50 of the 2-Furoyl-LIGRLO-NH2 peptide was the concentration giving 80% of the maximal 2-Furoyl-LIGRLO-NH2 response. Agonist activities are evaluated in comparison to basal signals evoked by assay buffer or maximal 2-Furoyl-LIGRLO-NH2 response. […] Antagonist activities are evaluated in comparison to basal signals evoked by assay buffer or EC50 of 2-Furoyl-LIGRLO-NH2 alone.
A general note: Calcium flux is commonly read through the fluorescence of an indicator in the cells.
For orientation: IC50 means the concentration at which inhibition is half-maximal. In the case of `Cc1cc(N2CCN(C(=O)c3ccc4c(n3)C(C)(C)CN4c3ccc(Cl)cn3)C(C)(C)C2)nc(C)c1C(=O)O` [Example 134, 6-(4-(1-(5-chloropyridin-2-yl)-3,3-dimethyl-2,3-dihydro-1H-pyrrolo[3,2-b]pyridine-5-carbonyl)-3,3-dimethylpiperazin-1-yl)-2,4-dimethylnicotinic acid], the IC50 is under 500 nM.
The result for `CC1(C)CN(c2ccc(Cl)c(F)c2)c2ccc(C(=O)N3CCC(CC(=O)O)CC3)nc21` [Example 35, 2-(1-(1-(4-chloro-3-fluorophenyl)-3,3-dimethyl-2,3-dihydro-1H-pyrrolo[3,2-b]pyridine-5-carbonyl)piperidin-4-yl)acetic acid] reads 500 to 10000 nM.
Next, `CC1(C)CN(c2ccc(Cl)c(F)c2)c2ccc(C(=O)N3CCN(c4ncc(C(=O)O)cn4)CC3(C)C)nc21` [Example 41, 2-(4-(1-(4-chloro-3-fluorophenyl)-3,3-dimethyl-2,3-dihydro-1H-pyrrolo[3,2-b]pyridine-5-carbonyl)-3,3-dimethylpiperazin-1-yl)-pyrimidine-5-carboxylic acid hydrochloride]: under 500 nM; `CC1(C)CN(c2ccc(Cl)c(F)c2)c2ccc(C(=O)N3C[C@@H]4[C@@H](CC(=O)O)[C@@H]4C3)nc21` [Example 31, 2-((1R,5S,6S)-3-(1-(4-chloro-3-fluorophenyl)-3,3-dimethyl-2,3-dihydro-1H-pyrrolo[3,2-b]pyridine-5-carbonyl)-3-azabicyclo[3.1.0]hexan-6-yl)acetic acid]: under 500 nM.
In the case of `CC1(C)CN(c2ccc(C(F)(F)F)c(Cl)c2)c2ncc(C(=O)N3CCN(c4ccc(CC(=O)O)cn4)CC3(C)C)nc21` [Example 219, 2-(6-(4-(5-(3-chloro-4-(trifluoromethyl)phenyl)-7,7-dimethyl-6,7-dihydro-5H-pyrrolo[2,3-b]pyrazine-2-carbonyl)-3,3-dimethylpiperazin-1-yl)pyridin-3-yl)acetic acid], the IC50 was under 500 nM.
Next, `CC1(C)CN(c2ccc(Cl)c(F)c2)Cc2sc(C(=O)N3CCN(c4ccc(CC(=O)O)cn4)CC3(C)C)nc21` [Example 270, 2-(6-(4-(5-(4-chloro-3-fluorophenyl)-7,7-dimethyl-4,5,6,7-tetrahydrothiazolo[5,4-c]pyridine-2-carbonyl)-3,3-dimethylpiperazin-1-yl)pyridin-3-yl)acetic acid]: 500 to 10000 nM.
Next, `CC1(C)CN(c2ccc(Cl)c(F)c2)c2ccc(C(=O)N3CCN(C(=O)CCC(=O)O)CC3(C)C)nc21` [Example 26, 4-(4-(1-(4-chloro-3-fluorophenyl)-3,3-dimethyl-2,3-dihydro-1H-pyrrolo[3,2-b]pyridine-5-carbonyl)-3,3-dimethylpiperazin-1-yl)-4-oxobutanoic acid]: 500 to 10000 nM; `Cc1cc(N2CCN(C(=O)c3cnc4c(n3)C3(CCCC3)CN4c3ccc(F)c(F)c3)C(C)(C)C2)nc(C)c1C(=O)O` [Example 223, 6-(4-(5′-(3,4-difluorophenyl)-5′,6′-dihydrospiro[cyclopentane-1,7′-pyrrolo[2,3-b]pyrazine]-2′-carbonyl)-3,3-dimethylpiperazin-1-yl)-2,4-dimethylnicotinic acid]: under 500 nM; `Cc1cc(N2CCN(C(=O)c3cnc4c(n3)C(C)(C)CN4c3cc(F)c(F)c(F)c3)C(C)(C)C2)nc(C)c1C(=O)O` [Example 277, 6-(4-(7,7-dimethyl-5-(3,4,5-trifluorophenyl)-6,7-dihydro-5H-pyrrolo[2,3-b]pyrazine-2-carbonyl)-3,3-dimethylpiperazin-1-yl)-2,4-dimethylnicotinic acid]: under 500 nM.
Next, `Cc1cc(N2CCN(C(=O)c3cnc4c(n3)C3(CCCC3)CN4c3ccc(Cl)c(F)c3)C(C)(C)C2)nc(C)c1C(=O)O` [Example 207, 6-(4-(5′-(4-chloro-3-fluorophenyl)-5′,6′-dihydrospiro[cyclopentane-1,7′-pyrrolo[2,3-b]pyrazine]-2′-carbonyl)-3,3-dimethylpiperazin-1-yl)-2,4-dimethylnicotinic acid]: under 500 nM; `O=C(O)CC1CCN(C(=O)c2ccc3c(n2)C2(CCC2)CN3c2ccc(Cl)c(F)c2)CC1` [Example 125, 2-(1-(1′-(4-chloro-3-fluorophenyl)-1′,2′-dihydrospiro[cyclobutane-1,3′-pyrrolo[3,2-b]pyridine]-5′-carbonyl)piperidin-4-yl)acetic acid]: 500 to 10000 nM.
Consider `CC1(C)CN(c2ccc(Cl)c(F)c2)c2ccc(C(=O)N3CCN(c4nncs4)CC3(C)C)nc21` [Example 67, (1-(4-chloro-3-fluorophenyl)-3,3-dimethyl-2,3-dihydro-1H-pyrrolo[3,2-b]pyridin-5-yl)(2,2-dimethyl-4-(1,3,4-thiadiazol-2-yl)piperazin-1-yl)methanone], for which the IC50 is under 500 nM.
Next, `CC1(C)CN(c2ccc(Cl)c(F)c2)Cc2cn(C(=O)N3CCN(c4ccc(CC(=O)O)cn4)CC3(C)C)nc21` [Example 273, 2-(6-(4-(5-(4-chloro-3-fluorophenyl)-7,7-dimethyl-4,5,6,7-tetrahydro-2H-pyrazolo[4,3-c]pyridine-2-carbonyl)-3,3-dimethylpiperazin-1-yl)pyridin-3-yl)acetic acid]: 500 to 10000 nM; `Cc1cc(N2CCN(C(=O)c3cnc4c(n3)C(C)(C)CN4c3ccc(Cl)c(Cl)c3)C(C)(C)C2)nc(C)c1C(=O)O` [Example 249, 6-(4-(5-(3,4-dichlorophenyl)-7,7-dimethyl-6,7-dihydro-5H-pyrrolo[2,3-b]pyrazine-2-carbonyl)-3,3-dimethylpiperazin-1-yl)-2,4-dimethylnicotinic acid]: under 500 nM; `CC1(C)CN(c2ccc(Cl)c(F)c2)c2ccc(C(=O)N3CCN(c4ccc(C(C)(C)C(=O)O)cn4)CC3(C)C)nc21` [Example 175, 2-(6-(4-(1-(4-chloro-3-fluorophenyl)-3,3-dimethyl-2,3-dihydro-1H-pyrrolo[3,2-b]pyridine-5-carbonyl)-3,3-dimethylpiperazin-1-yl)pyridin-3-yl)-2-methylpropanoic acid]: under 500 nM.
Next, `CC1(C)CN(c2ccc(Cl)c(F)c2)c2ccc(C(=O)N3CC[C@H](c4ccccn4)[C@H](C(=O)O)C3)nc21` (relative stereo) [Example 137, (cis)-1-(1-(4-chloro-3-fluorophenyl)-3,3-dimethyl-2,3-dihydro-1H-pyrrolo[3,2-b]pyridine-5-carbonyl)-4-(pyridin-2-yl)piperidine-3-carboxylic acid]: 500 to 10000 nM; `O=C1NC(=O)C2(CCN(C(=O)c3ccc4c(n3)C3(CCCC3)CN4c3ccc(Cl)c(F)c3)CC2)N1` [Example 4, 8-(1′-(4-chloro-3-fluorophenyl)-1′,2′-dihydrospiro[cyclopentane-1,3′-pyrrolo[3,2-b]pyridine]-5′-carbonyl)-1,3,8-triazaspiro[4.5]decane-2,4-dione]: under 500 nM; `Cc1cc(N2CCN(C(=O)c3ccc4c(n3)C(C)(C)CN4c3ccc(Cl)c(F)c3)C(C)(C)C2)nc(C)c1C(=O)O` [Example 45, 6-(4-(1-(4-chloro-3-fluorophenyl)-3,3-dimethyl-2,3-dihydro-1H-pyrrolo[3,2-b]pyridine-5-carbonyl)-3,3-dimethylpiperazin-1-yl)-2,4-dimethylnicotinic acid]: under 500 nM.
As for `CC1(C)CN(C2CCCC2)c2ccc(C(=O)N3CCN(c4ccc(CC(=O)O)cn4)CC3(C)C)nc21` [Example 167, 2-(6-(4-(1-cyclopentyl-3,3-dimethyl-2,3-dihydro-1H-pyrrolo[3,2-b]pyridine-5-carbonyl)-3,3-dimethylpiperazin-1-yl)pyridin-3-yl)acetic acid], the IC50 fell in the range of 500 to 10000 nM.
